Laboratory results: EP4813991A1 (iLeadBMS Co., Ltd., priority 2023, dated 2025)
Where two headings read alike, the source gives them in different places.

Assays:
[1] = molecular target: T1, CDK12 (Homo sapiens, UniProt Q9NYV4); assay: CDK12 kinase inhibitory activity assay (33P-ATP filter binding); assay type: biochemical; details: kinase reaction 120 minutes, 33P-gamma-ATP; read-out: CDK12 IC50
How it was run: (§1)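 Radiometric filter-binding read-out: after 20 min compound–enzyme/substrate pre-incubation across 9 concentrations, reaction started with ^33P-γ-ATP and run 120 min at room temperature. Filter-bound ^33P-substrate measured after 0.75 % phosphoric acid washes; remaining activity versus DMSO gives IC50.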

[2] = molecular target: T1, CDK12; assay: Cellular CDK12 inhibitory activity assay (Ser2 phosphorylation of RNA polymerase II subunit B1 CTD in MDA-MB-231 cells); assay type: cell-based; set-up: using MDA-MB-231 breast cancer cells; endogenous in cells; host or cells: MDA-MB-231; details: MDA-MB-231 cells, 6 hours treatment; read-out: pRpbl CTD S2 IC50
How it was run: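 MDA-MB-231 cells in L-15 with 10 % FBS were treated with compound at 9 concentrations for 6 h at 37 °C, 0 % CO2. In-Cell Western read phospho-Ser2 and total RNA polymerase II CTD on a Li-COR Odyssey; IC50 from 4-parameter dose-response fit.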

[3] = molecular target: CDK13 (Homo sapiens, UniProt Q14004); assay: CDK13 kinase inhibitory activity assay (33P-ATP filter binding); assay type: biochemical
How it was run: as §1

[4] = molecular target: CDK1 (Homo sapiens, UniProt P06493); assay: CDK1 kinase inhibitory activity assay and selectivity over CDK12; assay type: biochemical; details: for IC50: kinase reaction 120 minutes, 33P-gamma-ATP; for CDK1/CDK12: ratio of CDK1 IC50 to CDK12 IC50
Description: (§2) Before initiating the CDK1 and CDK2 kinase reactions, each Example compound was dissolved and diluted in DMSO as a solvent across 9 concentration ranges at room temperature. The diluted solutions were then incubated with a mixture of kinase and substrate (and cofactors, if required) for 20 minutes. Next, radioisotope-labeled ATP (^33P-gamma-ATP) was added to proceed with the kinase reaction at room temperature for 120 minutes. After the reaction was completed, the reaction mixture was transferred to a filter paper that binds the radioisotope-labeled catalytic product (^33P-substrate). Unreacted ^33P-ATP was removed by washing with 0.75 % phosphoric acid, and then the radioactive phosphorylated substrate remaining on the filter paper was measured. Kinase activity data were expressed as a percentage of the kinase activity remaining in the test sample compared to a DMSO control group. The half-maximal inhibitory concentration (IC50) for each kinase was calculated using Prism software.
(§3) The CDK1 and CDK2 kinase inhibitory activities of the Example compounds measured by the above method were evaluated according to the following criteria, and the results are presented in Table 14.

[5] = molecular target: CDK2 (Homo sapiens, UniProt P24941); assay: CDK2 kinase inhibitory activity assay and selectivity over CDK12; assay type: biochemical; details: for IC50: kinase reaction 120 minutes, 33P-gamma-ATP; for CDK2/CDK12: ratio of CDK2 IC50 to CDK12 IC50
Description: as §2, §3

[6] = tested on: MDA-MB-231 breast cancer cells; assay: Proliferation inhibitory activity assay against MDA-MB-231 breast cancer cells; assay type: cell-based; details: Homo sapiens, 72 hours, CellTiter Glo, relative IC50
How it was run: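 Cells grown in L-15 with 10% FBS at 37 °C, 0% CO2, then exposed next day to compounds at 9 concentrations (DMSO vehicle) for 72 h. Viability read by CellTiter Glo luminescence; relative IC50 from dose-response curve fit.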

[7] = tested on: BT-20 cells; assay: Breast cancer cell proliferation inhibitory activity, BT-20; assay type: cell-based; details: Homo sapiens, 72 hours, CellTiter Glo, relative IC50
Description: (§4) Experiments were conducted using three types of breast cancer cell lines to measure the cell proliferation inhibitory ability of each Example compound. For HCC70 cells, 100 µL of cell suspension was dispensed into a 96-well plate using RPMI1640 (Invitrogen) medium containing 10 % FBS, followed by incubation in a cell incubator at 37 °C and 5 % CO2. For BT-20 cells, 100 µL of cell suspension was dispensed into a 96-well plate using EMEM (Invitrogen) medium containing 10 % FBS, followed by incubation in a cell incubator at 37 °C and 5 % CO2. For MDA-MB-436 cells, 100 µL of cell suspension was dispensed into a 96-well plate using L-15 (Invitrogen) medium containing 10 % FBS, followed by incubation in a cell incubator at 37 °C and 0 % CO2. The next day, each Example compound dissolved and diluted in DMSO across 9 concentration ranges and a DMSO control group were treated on the cells for 72 hours. After completion of the compound treatment, 100 µL of CellTiter Glo (Promega) reagent was added to each well of the 96-wellplate, followed by shaking for 10 minutes and standing at room temperature for 10 minutes. After inserting the 96-well plate into an Envision plate reader (PerkinElmer), luminescence signals were measured. Relative IC50 values were calculated by fitting a dose-response curve using XL fit (IDBS Ltd) software.
(§5) The breast cancer cell proliferation inhibitory activities of the Example compounds measured by the method described above were evaluated according to the following criteria, and the results are presented in Table 15.

[8] = tested on: HCC70 cells; assay: Breast cancer cell proliferation inhibitory activity, HCC70; assay type: cell-based; details: Homo sapiens, 72 hours, CellTiter Glo, relative IC50
Description: as §4, §5

[9] = tested on: MDA-MB-436 cells; assay: Breast cancer cell proliferation inhibitory activity, MDA-MB-436; assay type: cell-based; details: Homo sapiens, 72 hours, CellTiter Glo, relative IC50
Description: as §4, §5

[10] = kinase reaction 120 minutes, 33P-gamma-ATP, read-out: CDK13 IC50

Chain of CDK13 (Q14004 whole entry, species assumed): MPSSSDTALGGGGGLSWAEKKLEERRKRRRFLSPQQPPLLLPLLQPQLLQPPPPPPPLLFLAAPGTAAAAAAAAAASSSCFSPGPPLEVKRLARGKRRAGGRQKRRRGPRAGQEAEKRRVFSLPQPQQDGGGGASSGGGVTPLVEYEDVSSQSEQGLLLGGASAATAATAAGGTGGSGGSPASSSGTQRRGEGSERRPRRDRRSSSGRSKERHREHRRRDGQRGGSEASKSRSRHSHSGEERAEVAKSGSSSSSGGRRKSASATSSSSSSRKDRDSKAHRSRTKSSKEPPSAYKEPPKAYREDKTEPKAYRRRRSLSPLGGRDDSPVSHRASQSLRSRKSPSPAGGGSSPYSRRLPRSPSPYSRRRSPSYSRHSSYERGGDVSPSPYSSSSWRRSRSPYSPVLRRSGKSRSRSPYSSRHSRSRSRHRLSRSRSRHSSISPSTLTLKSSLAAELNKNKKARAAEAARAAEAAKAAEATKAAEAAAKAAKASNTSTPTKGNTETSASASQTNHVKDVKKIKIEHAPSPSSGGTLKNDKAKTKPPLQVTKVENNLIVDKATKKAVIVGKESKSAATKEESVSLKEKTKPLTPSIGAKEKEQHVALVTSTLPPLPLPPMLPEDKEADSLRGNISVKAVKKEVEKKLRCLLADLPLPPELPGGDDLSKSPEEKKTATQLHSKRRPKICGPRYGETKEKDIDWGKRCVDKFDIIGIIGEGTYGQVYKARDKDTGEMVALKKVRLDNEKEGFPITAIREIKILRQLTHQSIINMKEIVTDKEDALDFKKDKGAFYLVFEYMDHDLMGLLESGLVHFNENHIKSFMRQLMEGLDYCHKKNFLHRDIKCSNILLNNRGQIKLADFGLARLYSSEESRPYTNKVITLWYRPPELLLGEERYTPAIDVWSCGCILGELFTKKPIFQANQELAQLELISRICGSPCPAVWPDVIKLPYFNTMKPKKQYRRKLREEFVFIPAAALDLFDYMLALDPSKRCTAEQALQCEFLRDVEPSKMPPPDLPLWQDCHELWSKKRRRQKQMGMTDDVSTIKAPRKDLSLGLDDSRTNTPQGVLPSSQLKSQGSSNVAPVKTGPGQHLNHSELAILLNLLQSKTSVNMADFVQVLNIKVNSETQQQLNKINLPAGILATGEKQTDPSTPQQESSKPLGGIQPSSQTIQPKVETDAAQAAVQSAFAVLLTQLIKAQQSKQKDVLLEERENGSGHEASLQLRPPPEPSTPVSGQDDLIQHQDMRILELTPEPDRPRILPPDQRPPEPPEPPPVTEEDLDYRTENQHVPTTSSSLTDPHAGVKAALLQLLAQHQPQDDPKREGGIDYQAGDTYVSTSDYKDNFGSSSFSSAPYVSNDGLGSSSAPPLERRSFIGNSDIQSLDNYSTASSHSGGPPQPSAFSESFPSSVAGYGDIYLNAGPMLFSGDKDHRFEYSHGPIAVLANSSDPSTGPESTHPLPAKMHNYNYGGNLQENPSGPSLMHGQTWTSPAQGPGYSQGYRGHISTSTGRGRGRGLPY
Chain of CDK13 (O75909 whole entry partner, species assumed): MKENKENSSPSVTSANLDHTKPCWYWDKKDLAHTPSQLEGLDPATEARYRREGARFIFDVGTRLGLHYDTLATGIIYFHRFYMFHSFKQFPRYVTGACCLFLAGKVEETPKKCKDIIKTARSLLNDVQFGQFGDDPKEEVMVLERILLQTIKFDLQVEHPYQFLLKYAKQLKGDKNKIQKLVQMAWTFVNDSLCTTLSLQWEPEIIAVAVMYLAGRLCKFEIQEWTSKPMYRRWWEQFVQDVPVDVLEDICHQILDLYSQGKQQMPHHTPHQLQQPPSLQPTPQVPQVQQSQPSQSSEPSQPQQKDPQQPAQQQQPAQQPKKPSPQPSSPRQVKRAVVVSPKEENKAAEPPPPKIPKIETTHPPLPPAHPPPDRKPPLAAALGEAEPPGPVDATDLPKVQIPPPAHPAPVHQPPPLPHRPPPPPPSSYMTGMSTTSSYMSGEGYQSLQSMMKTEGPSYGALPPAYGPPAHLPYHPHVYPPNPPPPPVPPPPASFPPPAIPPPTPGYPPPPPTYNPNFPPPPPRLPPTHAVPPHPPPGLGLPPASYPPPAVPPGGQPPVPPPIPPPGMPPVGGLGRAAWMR
Chain of CDK1 (P06493 whole entry, species assumed): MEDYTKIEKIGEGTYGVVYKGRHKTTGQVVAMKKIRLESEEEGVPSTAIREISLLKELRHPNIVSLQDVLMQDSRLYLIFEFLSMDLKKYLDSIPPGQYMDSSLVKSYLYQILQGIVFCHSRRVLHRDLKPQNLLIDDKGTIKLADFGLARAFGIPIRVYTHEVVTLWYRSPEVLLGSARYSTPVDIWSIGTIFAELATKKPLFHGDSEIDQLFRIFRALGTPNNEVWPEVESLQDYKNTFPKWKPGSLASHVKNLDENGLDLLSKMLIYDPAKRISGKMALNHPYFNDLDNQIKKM
Chain of CDK1 (P14635 whole entry partner, species assumed): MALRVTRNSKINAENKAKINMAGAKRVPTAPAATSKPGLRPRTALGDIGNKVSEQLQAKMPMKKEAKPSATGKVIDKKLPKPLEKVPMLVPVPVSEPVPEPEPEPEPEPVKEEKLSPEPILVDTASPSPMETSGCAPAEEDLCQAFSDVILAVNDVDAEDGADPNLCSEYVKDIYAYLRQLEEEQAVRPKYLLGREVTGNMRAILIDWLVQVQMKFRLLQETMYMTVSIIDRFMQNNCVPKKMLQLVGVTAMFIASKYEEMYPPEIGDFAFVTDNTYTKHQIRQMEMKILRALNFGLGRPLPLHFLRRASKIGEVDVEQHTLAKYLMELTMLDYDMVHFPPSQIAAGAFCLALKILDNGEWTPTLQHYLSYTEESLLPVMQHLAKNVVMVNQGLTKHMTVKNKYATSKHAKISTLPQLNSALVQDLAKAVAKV
T1 sequence (Q9NYV4 whole entry, species assumed): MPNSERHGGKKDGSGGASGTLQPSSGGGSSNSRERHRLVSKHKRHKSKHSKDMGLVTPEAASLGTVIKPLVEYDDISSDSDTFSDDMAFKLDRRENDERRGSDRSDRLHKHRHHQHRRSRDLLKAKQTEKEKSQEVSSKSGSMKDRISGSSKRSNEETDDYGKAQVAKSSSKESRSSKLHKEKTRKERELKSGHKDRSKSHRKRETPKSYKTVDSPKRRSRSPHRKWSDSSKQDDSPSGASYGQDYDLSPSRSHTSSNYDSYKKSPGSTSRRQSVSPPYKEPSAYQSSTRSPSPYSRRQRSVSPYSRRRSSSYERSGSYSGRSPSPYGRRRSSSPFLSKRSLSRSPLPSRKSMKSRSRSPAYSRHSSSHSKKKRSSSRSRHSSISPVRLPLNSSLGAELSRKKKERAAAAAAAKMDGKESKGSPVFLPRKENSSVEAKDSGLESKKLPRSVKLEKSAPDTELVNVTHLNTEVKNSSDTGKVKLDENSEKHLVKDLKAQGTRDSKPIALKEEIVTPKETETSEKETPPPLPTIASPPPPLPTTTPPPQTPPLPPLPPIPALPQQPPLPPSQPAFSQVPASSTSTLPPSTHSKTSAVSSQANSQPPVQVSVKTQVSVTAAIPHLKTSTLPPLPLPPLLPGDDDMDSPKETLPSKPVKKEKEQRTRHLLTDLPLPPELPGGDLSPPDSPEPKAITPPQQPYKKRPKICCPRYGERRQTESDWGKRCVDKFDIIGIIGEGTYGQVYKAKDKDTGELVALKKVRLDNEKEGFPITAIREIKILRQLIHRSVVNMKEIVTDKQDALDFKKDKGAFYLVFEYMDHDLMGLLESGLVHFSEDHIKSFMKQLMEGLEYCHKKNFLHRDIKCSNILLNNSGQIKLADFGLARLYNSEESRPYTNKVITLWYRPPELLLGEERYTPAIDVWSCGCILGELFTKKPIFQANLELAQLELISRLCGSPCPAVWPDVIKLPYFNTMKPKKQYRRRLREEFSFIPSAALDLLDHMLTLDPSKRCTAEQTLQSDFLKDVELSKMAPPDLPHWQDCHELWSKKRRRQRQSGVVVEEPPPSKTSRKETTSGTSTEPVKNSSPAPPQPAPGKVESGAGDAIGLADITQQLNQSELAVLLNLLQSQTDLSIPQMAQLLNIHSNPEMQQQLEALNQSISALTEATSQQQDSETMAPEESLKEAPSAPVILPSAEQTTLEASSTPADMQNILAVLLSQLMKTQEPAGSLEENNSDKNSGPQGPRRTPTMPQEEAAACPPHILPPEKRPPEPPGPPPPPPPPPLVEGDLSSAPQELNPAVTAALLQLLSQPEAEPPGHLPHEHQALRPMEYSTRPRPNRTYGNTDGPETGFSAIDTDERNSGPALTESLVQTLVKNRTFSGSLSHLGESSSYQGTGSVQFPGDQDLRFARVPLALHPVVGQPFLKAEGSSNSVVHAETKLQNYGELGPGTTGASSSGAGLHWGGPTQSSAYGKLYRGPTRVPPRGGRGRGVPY
T1 sequence (O75909 whole entry partner, species assumed): as the sequence (O75909 whole entry partner, species assumed) above

Row | Compound | IC50 [1] [µM] | IC50 [2] [µM] | IC50 [3, 10] [µM] | IC50 [4] [µM] | CDK1/CDK12 [4] | IC50 [5] [µM] | CDK2/CDK12 [5] | IC50 [6] [µM] | IC50 [3] [µM] | IC50 [7] [µM] | IC50 [8] [µM] | IC50 [9] [µM]
1 | FC(F)(F)c1cnc2c(NCc3nc4cc(Cl)c(Cl)cc4[nH]3)cc(N3CCOCC3)nn12 [Example 68, N-((5,6-dichloro-1H-benzo[d]imidazol-2-yl)methyl)-6-morpholino-3-(trifluoromethyl)imidazo[1,2-b]pyridazin-8-amine] | 0.1 to 0.5 | < 0.3 | < 0.1 | > 1 | C (CDK1/CDK12 or CDK2/CDK12 ≤ 100-fold) | > 1 | C (CDK1/CDK12 or CDK2/CDK12 ≤ 100-fold) | ≤ 0.05 |  |  |  | 
2 | FC(F)(F)c1cnc2c(NCc3nc4ccccc4[nH]3)cc(N3CCOCC3)nn12 [Example 69, N-((1H-benzo[d]imidazol-2-yl)methyl)-6-morpholino-3-(trifluoromethyl)imidazo[1,2-b]pyridazin-8-amine] | < 0.1 | 0.3 to 3 | < 0.1 | > 1 | B (100-fold < CDK1/CDK12 or CDK2/CDK12 ≤ 500-fold) | > 1 | B (100-fold < CDK1/CDK12 or CDK2/CDK12 ≤ 500-fold) | 0.05 to 0.5 |  |  |  | 
3 | COc1cc2nc(CNc3cc(N4CCOCC4)nn4c(C(F)(F)F)cnc34)[nH]c2cc1Cl [Example 71, N-((6-chloro-5-methoxy-1H-benzo[d]imidazol-2-yl)methyl)-6-morpholino-3-(trifluoromethyl)imidazo[1,2-b]pyridazin-8-amine] | < 0.1 | < 0.3 | < 0.1 | > 1 | B (100-fold < CDK1/CDK12 or CDK2/CDK12 ≤ 500-fold) | > 1 | B (100-fold < CDK1/CDK12 or CDK2/CDK12 ≤ 500-fold) | ≤ 0.05 |  |  |  | 
4 | Cc1cc2nc(CNc3cc(N4CCOCC4)nn4c(C(F)(F)F)cnc34)[nH]c2cc1C [Example 72, N-((5,6-dimethyl-1H-benzo[d]imidazol-2-yl)methyl)-6-morpholino-3-(trifluoromethyl)imidazo[1,2-b]pyridazin-8-amine] | < 0.1 | < 0.3 | < 0.1 | > 1 | A (CDK1/CDK12 or CDK2/CDK12 > 500-fold) | > 1 | A (CDK1/CDK12 or CDK2/CDK12 > 500-fold) | ≤ 0.05 |  |  |  | 
5 | COc1cccc2[nH]c(CNc3cc(N4CCOCC4)nn4c(C(F)(F)F)cnc34)nc12 [Example 73, N-((4-methoxy-1H-benzo[d]imidazol-2-yl)methyl)-6-morpholino-3-(trifluoromethyl)imidazo[1,2-b]pyridazin-8-amine] | < 0.1 | 0.3 to 3 | < 0.1 | > 1 | A (CDK1/CDK12 or CDK2/CDK12 > 500-fold) | > 1 | A (CDK1/CDK12 or CDK2/CDK12 > 500-fold) | ≤ 0.05 |  |  |  | 
6 | Cc1ccnc2[nH]c(CNc3cc(N4CCOCC4)nn4c(C(F)(F)F)cnc34)nc12 [Example 75, N-((7-methyl-3H-imidazo[4,5-b]pyridin-2-yl)methyl)-6-morpholino-3-(trifluoromethyl)imidazo[1,2-b]pyridazin-8-amine] | < 0.1 | < 0.3 | < 0.1 | > 1 | A (CDK1/CDK12 or CDK2/CDK12 > 500-fold) | > 1 | A (CDK1/CDK12 or CDK2/CDK12 > 500-fold) | 0.05 to 0.5 |  |  |  | 
7 | Fc1cccc2[nH]c(CNc3cc(N4CCOCC4)nn4c(C(F)(F)F)cnc34)nc12 [Example 76, N-((4-fluoro-1H-benzo[d]imidazol-2-yl)methyl)-6-morpholino-3-(trifluoromethyl)imidazo[1,2-b]pyridazin-8-amine] | < 0.1 | < 0.3 | < 0.1 | > 1 | A (CDK1/CDK12 or CDK2/CDK12 > 500-fold) | > 1 | A (CDK1/CDK12 or CDK2/CDK12 > 500-fold) | ≤ 0.05 |  |  |  | 
8 | Fc1ccc2[nH]c(CNc3cc(N4CCOCC4)nn4c(C(F)(F)F)cnc34)nc2c1 [Example 77, N-((5-fluoro-1H-benzo[d]imidazol-2-yl)methyl)-6-morpholino-3-(trifluoromethyl)imidazo[1,2-b]pyridazin-8-amine] | < 0.1 | < 0.3 | < 0.1 | > 1 | A (CDK1/CDK12 or CDK2/CDK12 > 500-fold) | > 1 | B (100-fold < CDK1/CDK12 or CDK2/CDK12 ≤ 500-fold) | ≤ 0.05 |  |  |  | 
9 | O=C(CO)NC1CCN(c2cc(NCc3nc4cc(Cl)c(Cl)cc4[nH]3)c3ncc(C(F)(F)F)n3n2)CC1 [Example 115, N-(1-(8-(((5,6-dichloro-1H-benzo[d]imidazol-2-yl)methyl)amino)-3-(trifluoromethyl)imidazo[1,2-b]pyridazin-6-yl)piperidin-4-yl)-2-hydroxyacetamide] | < 0.1 | < 0.3 |  | > 1 | B (100-fold < CDK1/CDK12 or CDK2/CDK12 ≤ 500-fold) | > 1 | B (100-fold < CDK1/CDK12 or CDK2/CDK12 ≤ 500-fold) | ≤ 0.05 | < 0.1 |  |  | 
10 | O=C(c1cc(Cc2n[nH]c(=O)c3ccccc23)ccc1F)N1CCN(C(=O)C2CC2)CC1 [Olaparib, reference compound] |  |  |  |  |  |  |  |  |  | > 1 | > 1 | > 1
11 | CC(=O)c1c(C)c2cnc(Nc3ccc(N4CCNCC4)cn3)nc2n(C2CCCC2)c1=O [Palbociclib, reference compound] |  |  |  |  |  |  |  |  |  | > 1 | > 1 | 
12 | Cn1cc(-n2cnc3c(NCc4nc5cc(Cl)c(Cl)cc5[nH]4)nc(N4CCOCC4)nc32)cn1 [SR-4835, reference compound] |  |  | 0.1 to 0.5 |  |  |  |  | 0.05 to 0.5 |  | 0.05 to 1 | 0.05 to 1 | 0.05 to 1
